Assay results from ChEMBL document CHEMBL3352821, “Cyclic Hexapeptides from the Deep South China Sea-Derived Streptomyces scopuliridis SCSIO ZJ46 Active Against Pathogenic Gram-Positive Bacteria” (J Nat Prod, 2014).
Values after ≈ are worked out from the molar mass of the structure shown. Non-standard residues stand in square brackets, D forms with d. Residues, ends and D or L forms follow the SMILES beside them. aIle = CC[C@@H](C)[C@H](N)C(=O)O

How the values were obtained:
[1] = system: Staphylococcus epidermidis; assay: Antimicrobial activity against methicillin-resistant Staphylococcus epidermidis shhs-E1 clinical isolate by serial dilution/CLSI method; assay type: functional
[2] = system: NCI-H460; assay: Cytotoxicity against human NCI-H460 after 72 hrs by SRB assay; assay type: functional, cell-based; details: NCI-H460, 72 h
[3] = system: HepG2; assay: Cytotoxicity against human HepG2 cells after 72 hrs by SRB assay; assay type: functional, cell-based; details: HepG2, 72 h
[4] = system: SF-268; assay: Cytotoxicity against human SF268 cells after 72 hrs by SRB assay; assay type: functional, cell-based; details: SF-268, 72 h
[5] = system: MCF7; assay: Cytotoxicity against human MCF7 cells after 72 hrs by SRB assay; assay type: functional, cell-based; details: MCF7, 72 h
[6] = system: Staphylococcus aureus; assay: Antimicrobial activity against methicillin-resistant Staphylococcus aureus shhs-A1 clinical isolate by serial dilution/CLSI method; assay type: functional
[7] = system: Klebsiella pneumoniae; assay: Antimicrobial activity against Klebsiella pneumoniae ATCC 13883 by serial dilution/CLSI method; assay type: functional
[8] = system: Streptococcus pneumoniae; assay: Antimicrobial activity against Streptococcus pneumoniae NCTC 7466 by serial dilution/CLSI method; assay type: functional
[9] = system: Staphylococcus aureus; assay: Antimicrobial activity against Staphylococcus aureus ATCC 29213 by serial dilution/CLSI method; assay type: functional

## CC(C)C[C@@H]1NC(=O)[C@H](Cc2c[nH]c3ccccc23)NC(=O)CNC(=O)[C@H](CC(N)=O)NC(=O)[C@H](C(C)C)NC(=O)[C@@H](CC(C)C)NC1=O
[1]
  MIC: 32 µg/mL (≈ 46.9 µM)
[2]
  IC50: > 100 µM
[3]
  IC50: > 100 µM
[4]
  IC50: > 100 µM
[5]
  IC50: > 100 µM
[6]
  MIC: > 128 µg/mL
[7]
  MIC: > 128 µg/mL
[8]
  MIC: 12.5 µg/mL (≈ 18.3 µM)
[9]
  MIC: 16 µg/mL (≈ 23.4 µM)

## CC[C@@H](C)[C@@H]1NC(=O)[C@@H](CC(C)C)NC(=O)[C@H](CC(C)C)NC(=O)[C@H](CC(=O)c2ccccc2NC=O)NC(=O)CNC(=O)[C@H](CC(N)=O)NC1=O
[1]
  MIC: > 128 µg/mL
[2]
  IC50: > 100 µM
[3]
  IC50: > 100 µM
[4]
  IC50: > 100 µM
[5]
  IC50: > 100 µM
[6]
  MIC: > 128 µg/mL
[7]
  MIC: > 128 µg/mL
[8]
  MIC: > 100 µg/mL
[9]
  MIC: > 128 µg/mL

## CC[C@@H](C)[C@@H]1NC(=O)[C@@H](CC(C)C)NC(=O)[C@H](CC(C)C)NC(=O)[C@H](CC(=O)c2ccccc2N)NC(=O)CNC(=O)[C@H](CC(N)=O)NC1=O
[1]
  MIC: > 128 µg/mL
[2]
  IC50: > 100 µM
[3]
  IC50: > 100 µM
[4]
  IC50: > 100 µM
[5]
  IC50: > 100 µM
[6]
  MIC: > 128 µg/mL
[7]
  MIC: > 128 µg/mL
[8]
  MIC: > 100 µg/mL
[9]
  MIC: > 128 µg/mL

## CC[C@@H](C)[C@@H]1NC(=O)[C@@H](CC(C)C)NC(=O)[C@H](CC(C)C)NC(=O)[C@H](Cc2c[nH]c3ccccc23)NC(=O)CNC(=O)[C@H](CC(N)=O)NC1=O [DESOTAMIDE] (cyclo(GWL[dL][aIle]N))
[1]
  MIC: 32 µg/mL (≈ 45.9 µM)
[2]
  IC50: > 100 µM
[3]
  IC50: > 100 µM
[4]
  IC50: > 100 µM
[5]
  IC50: > 100 µM
[6]
  MIC: > 128 µg/mL
[7]
  MIC: > 128 µg/mL
[8]
  MIC: 12.5 µg/mL (≈ 17.9 µM)
[9]
  MIC: 16 µg/mL (≈ 23 µM)

## CN[C@H](CC(C)C)C(=O)N[C@H]1C(=O)N[C@@H](CC(N)=O)C(=O)N[C@H]2C(=O)N[C@H]3C(=O)N[C@H](C(=O)N[C@H](C(=O)O)c4cc(O)cc(O)c4-c4cc3ccc4O)[C@H](O)c3ccc(c(Cl)c3)Oc3cc2cc(c3O[C@@H]2O[C@H](CO)[C@@H](O)[C@H](O)[C@H]2O[C@H]2C[C@](C)(N)[C@H](O)[C@H](C)O2)Oc2ccc(cc2Cl)[C@H]1O [VANCOMYCIN]
[7]
  MIC: > 128 µg/mL
[8]
  MIC: 0.37 µg/mL (≈ 0.255 µM)
